Results from patent US9708336B2, “Metallo-beta-lactamase inhibitors” (priority 2014, dated 2017).
Like-named read-outs stand apart in the source and are kept apart here.

Tests used:
NDM-1 = NDM-1 (Klebsiella pneumoniae, UniProt C7C422); test: biochemical; type: biochemical; conditions: read-out: NDM-1 IC50
IMP-1 = IMP-1 (Serratia marcescens, UniProt P52699); test: biochemical; type: biochemical; conditions: read-out: IMP-1 IC50
VIM-1 = VIM-1 (Pseudomonas aeruginosa (strain ATCC 15692 / DSM 22644 / CIP 104116 / JCM 14847 / LMG 12228 / 1C / PRS 101 / PAO1), UniProt A0A0F7KYQ8); test: Enzyme activity: determination of IC50, fluorescence assay with CCF2-FA substrate (VIM-1); type: biochemical
[1] = tested on: Escherichia coli expressing NDM-1 (CLB30016); test: Antibiotic potentiation activity: synergistic concentration (MITC95) with imipenem, OD600 growth; type: cell-based; conditions: for Escherichia coli expressing NDM-1 (CLB 30016) MITC95: concentration giving 95% inhibition of bacterial growth
Summary of the method: (§1)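 Imipenem (4 μg/ml final; 1 μg/ml as an option) was combined with compound against isolates diluted 1:100 from saline suspensions into 1.1× CAMHB. Growth was assessed by absorbance at 22–24 h, 35 °C.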

[2] = tested on: Klebsiella pneumoniae expressing VIM-1 (IHMA599644); test: as above; type: cell-based; conditions: for Klebsiella pneumoniae expressing VIM-1 (IHMA 599644) MITC95: concentration giving 95% inhibition of bacterial growth
Summary of the method: as §1

[3] = tested on: Serratia marcescens expressing IMP-1 (CL5741); test: as above; type: cell-based; conditions: for Serratia marcescens expressing IMP-1 (CL5741) MITC95: concentration giving 95% inhibition of bacterial growth
Summary of the method: as §1

[4] = NDM-1 enzyme, CCF2-FA fluorescence assay
[5] = IMP-1 enzyme, CCF2-FA fluorescence assay
[6] = VIM-1 enzyme, CCF2-FA fluorescence assay, read-out: VIM-1 IC50
[7] = Escherichia coli expressing NDM-1 (CLB30016), 95% growth inhibition
[8] = Klebsiella pneumoniae expressing VIM-1 (IHMA599644), 95% growth inhibition
[9] = Serratia marcescens expressing IMP-1 (CL5741), 95% growth inhibition
[10] = fluorescence assay with CCF2-FA substrate
[11] = fluorescence assay with CCF2-FA substrate, read-out: VIM-1 IC50
[12] = VIM-1 IC50, VIM-1 enzyme, CCF2-FA fluorescence assay
[13] = CLB30016 (NDM-1), 95% inhibition of bacterial growth
[14] = IHMA599644 (VIM-1), 95% inhibition of bacterial growth
[15] = CL5741 (IMP-1), 95% inhibition of bacterial growth
[16] = VIM-1 IC50, fluorescence assay with CCF2-FA substrate
[17] = NDM-1 enzyme, CCF2-FA substrate
[18] = IMP-1 enzyme, CCF2-FA substrate
[19] = VIM-1 enzyme, CCF2-FA substrate, read-out: VIM-1 IC50
[20] = (CLB30016, NDM-1), 95% growth inhibition
[21] = Klebsiella pneumoniae IHMA599644 (VIM-1), 95% growth inhibition
[22] = Serratia marcescens CL5741 (IMP-1), 95% growth inhibition

Chain of NDM-1 (C7C422 whole entry, looked up, species assumed): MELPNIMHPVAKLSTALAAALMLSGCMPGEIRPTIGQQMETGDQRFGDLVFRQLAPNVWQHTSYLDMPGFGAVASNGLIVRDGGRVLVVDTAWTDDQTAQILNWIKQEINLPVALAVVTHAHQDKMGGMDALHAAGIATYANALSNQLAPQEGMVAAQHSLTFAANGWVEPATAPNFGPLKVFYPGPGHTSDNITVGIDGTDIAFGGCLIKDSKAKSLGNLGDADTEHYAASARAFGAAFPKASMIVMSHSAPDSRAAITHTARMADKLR
Chain of IMP-1 (P52699 whole entry, looked up): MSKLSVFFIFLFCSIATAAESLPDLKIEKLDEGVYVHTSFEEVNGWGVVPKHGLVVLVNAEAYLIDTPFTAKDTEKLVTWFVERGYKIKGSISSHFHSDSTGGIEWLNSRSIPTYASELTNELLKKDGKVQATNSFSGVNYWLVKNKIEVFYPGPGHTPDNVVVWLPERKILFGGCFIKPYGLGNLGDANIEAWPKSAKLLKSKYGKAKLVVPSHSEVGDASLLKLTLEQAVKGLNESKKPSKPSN

SMILES | IC50 (NDM-1; [4]) [nM] | IC50 (IMP-1; [5]) [nM] | Escherichia coli MITC95 [1, 7] [µM] | Klebsiella pneumoniae MITC95 [2, 8] [µM] | Serratia marcescens MITC95 [3, 9] [µM] | IC50 (NDM-1; [10]) [nM] | IC50 (IMP-1; [10]) [nM] | IC50 (VIM-1; [11]) [nM] | Escherichia coli expressing NDM-1 (CLB 30016) MITC95 [1] [µM] | Klebsiella pneumoniae expressing VIM-1 (IHMA 599644) MITC95 [2] [µM] | Serratia marcescens expressing IMP-1 (CL5741) MITC95 [3] [µM] | also measured
N=C(N)c1nc2c(-c3ccc(C(F)(F)F)c(S(N)(=O)=O)c3-c3nnn[nH]3)cccc2s1 [Example 482, 4-(3-Sulfamoyl-2-(1H-tetrazol-5-yl)-4-(trifluoromethyl)phenyl)benzo[d]thiazole-2-carboximidamide] | 0.889 | 7.24 | 1.563 | 3.125 | 3.125 | – | – | – | – | – | – | IC50 (VIM-1; [6]): 0.194 nM
NS(=O)(=O)c1nccc(N2CCC(Oc3ncccn3)CC2)c1-c1nnn[nH]1 [Example 231, 4-[4-(pyrimidin-2-yloxy)piperidin-1-yl]-3-(1H-tetrazol-5-yl)pyridine-2-sulfonamide] | – | – | – | – | – | 10.8 | 423 | 326 | 4.688 | >200 | 18.75 | –
NS(=O)(=O)c1cccc(-c2cccc(S(N)(=O)=O)c2-c2nnn[nH]2)c1 [Example 118, 2-(1H-tetrazol-5-yl)-[1,1′-biphenyl]-3,3′-disulfonamide] | – | – | – | – | – | 44.2 | 1330 | 492 | 0.7813 | 50 | 18.75 | –
NS(=O)(=O)c1cccc(C2CCCCC2)c1-c1nnn[nH]1 [Example 151, 3-cyclohexyl-2-(1H-tetrazol-5-yl)benzenesulfonamide] | – | – | – | – | – | 1.25 | 31.8 | 31.5 | 1.172 | 37.5 | 1.563 | –
NS(=O)(=O)c1cccc(-c2ccc(CNCC3(O)CC3)cc2)c1-c1nnn[nH]1 [Example 380, 4′-({[(1-hydroxycyclopropyl)methyl]amino}methyl)-2-(1H-tetrazol-5-yl)biphenyl-3-sulfonamide] | 22.2 | 335 | 1.563 | 62.5 | 4.688 | – | – | – | – | – | – | IC50 (VIM-1; [12]): 263 nM
NS(=O)(=O)c1c(C(F)(F)F)ccc(N2CCCC3(CCNCC3)C2)c1-c1nnn[nH]1 [Example 772, 3-(2,9-diazaspiro[5.5]undec-2-yl)-2-(1H-tetrazol-5-yl)-6-(trifluoromethyl) benzenesulfonamide] | – | – | – | – | – | 33.9 | 114 | 13.9 | – | – | – | Escherichia coli MITC95 [1, 13]: 12.5 µM; Klebsiella pneumoniae MITC95 [2, 14]: 50 µM; Serratia marcescens MITC95 [3, 15]: 50 µM
NS(=O)(=O)c1cccc(-c2ccc(CNCCn3nccn3)cc2)c1-c1nnn[nH]1 [Example 383, 2-(1H-tetrazol-5-yl)-4′-({[2-(2H-1,2,3-triazol-2-yl)ethyl]amino}methyl)biphenyl-3-sulfonamide] | 4.66 | 51.6 | 1.563 | 200 | 1.563 | – | – | – | – | – | – | IC50 (VIM-1; [6]): 269 nM
COc1ccc2cc(-c3cccc(S(N)(=O)=O)c3-c3nnn[nH]3)cnc2n1 [Example 138, 3-(7-methoxy-1,8-naphthyridin-3-yl)-2-(1H-tetrazol-5-yl)benzenesulfonamide] | – | – | – | – | – | 6.78 | 354 | 166 | 1.563 | >200 | 37.5 | –
NS(=O)(=O)c1c(Br)ccc(-c2ccnc3ccccc23)c1-c1nn[nH]n1 [Example 266, 6-bromo-3-(quinolin-4-yl)-2-(2H-tetrazol-5-yl)benzenesulfonamide] | 2.08 | 12.6 | 3.125 | 9.375 | 0.7813 | – | – | – | – | – | – | IC50 (VIM-1; [6]): 0.689 nM
Cn1cncc1C[C@@H](NCc1ccc(-c2cccc(S(N)(=O)=O)c2-c2nnn[nH]2)cc1)C(=O)O [Example 363, 3-methyl-N-{[3′-sulfamoyl-2′-(1H-tetrazol-5-yl)biphenyl-4-yl]methyl}-D-histidine] | 21.4 | 233 | 3.125 | 100 | 6.25 | – | – | – | – | – | – | IC50 (VIM-1; [6]): 495 nM
NC1CCC(N2CC(c3ccc(-c4ccc(C(F)(F)F)c(S(N)(=O)=O)c4-c4nnn[nH]4)cc3)C2)C1 (stereo not drawn) [Example 808, 4′-[1-(3-aminocyclopentyl)azetidin-3-yl]-2-(1H-tetrazol-5-yl)-4-(trifluoromethyl)biphenyl-3-sulfonamide] | – | – | – | – | – | 3.57 | 8.44 | 25.3 | – | – | – | Escherichia coli MITC95 [1, 13]: 1.563 µM; Klebsiella pneumoniae MITC95 [2, 14]: 25 µM; Serratia marcescens MITC95 [3, 15]: 3.125 µM
Nc1nccc2ccc(-c3cccc(S(N)(=O)=O)c3-c3nnn[nH]3)cc12 [Example 400, 3-(1-aminoisoquinolin-7-yl)-2-(1H-tetrazol-5-yl)benzenesulfonamide] | 1.64 | 166 | 0.25 | 6.25 | 12.5 | – | – | – | – | – | – | IC50 (VIM-1; [12]): 18.4 nM
NS(=O)(=O)c1c(C(F)(F)F)ccc(-c2cnc3ccccn23)c1-c1nnn[nH]1 [Example 748, 3-imidazo[1,2-a]pyridin-3-yl-2-(1H-tetrazol-5-yl)-6-(trifluoromethyl)benzenesulfon-amide] | – | – | – | – | – | 0.833 | 1.25 | – | – | – | – | IC50 (VIM-1; [16]): 0.248 nM; Escherichia coli MITC95 [1, 13]: 0.7813 µM; Klebsiella pneumoniae MITC95 [2, 14]: 6.25 µM; Serratia marcescens MITC95 [3, 15]: 6.25 µM
NS(=O)(=O)c1cccc(C2CCn3cncc3C2)c1-c1nn[nH]n1 (stereo not drawn) [Example 178, 3-(5,6,7,8-tetrahydroimidazo[1,5-a]pyridin-7-yl)-2-(2H-tetrazol-5-yl)benzenesulfonamide] | – | – | – | – | – | 28.4 | 1020 | – | 0.25 | 9.375 | 12.5 | IC50 (VIM-1; [16]): 65.5 nM
CC(CO)(CO)c1ccc(-c2ccc(C(F)(F)F)c(S(N)(=O)=O)c2-c2nnn[nH]2)cc1 [Example 725, 4′-[2-hydroxy-1-(hydroxymethyl)-1-methylethyl]-2-(1H-tetrazol-5-yl)-4-(trifluoromethyl)biphenyl-3-sulfonamide] | – | – | – | – | – | – | – | – | – | – | – | IC50 (NDM-1; [17]): 0.767 nM; IC50 (IMP-1; [18]): 0.92 nM; IC50 (VIM-1; [19]): 1.27 nM; Escherichia coli MITC95 [1, 20]: 12.5 µM; Klebsiella pneumoniae MITC95 [2, 21]: 25 µM; Serratia marcescens MITC95 [3, 22]: 6.25 µM
NS(=O)(=O)c1cccc(Cc2ccccc2)c1-c1nnn[nH]1 [Example 162, 3-benzyl-2-(1H-tetrazol-5-yl)benzenesulfonamide] | – | – | – | – | – | 18.9 | 571 | 691 | 1.563 | 200 | 12.5 | –
NS(=O)(=O)c1c(C(F)(F)F)ccc(-c2cccc3cnccc23)c1-c1nn[nH]n1 [Example 515, 3-(Isoquinolin-5-yl)-2-(2H-tetrazol-5-yl)-6-(trifluoromethyl)benzenesulfonamide] | – | – | – | – | – | – | – | – | – | – | – | IC50 (NDM-1; [17]): 0.603 nM; IC50 (IMP-1; [18]): 3.68 nM; IC50 (VIM-1; VIM-1 IC50, VIM-1 enzyme, CCF2-FA substrate): 0.309 nM; Escherichia coli MITC95 [1, 20]: 4.688 µM; Klebsiella pneumoniae MITC95 [2, 21]: 6.25 µM; Serratia marcescens MITC95 [3, 22]: 0.3906 µM
N=C(NC1CNC1)c1ccc(-c2ccc(C(F)(F)F)c(S(N)(=O)=O)c2-c2nn[nH]n2)cc1 [Example 563, N-(azetidin-3-yl)-3′-sulfamoyl-2′-(2H-tetrazol-5-yl)-4′-(trifluoromethyl)biphenyl-4-carboximidamide] | – | – | – | – | – | – | – | – | – | – | – | IC50 (NDM-1; [17]): 53.8 nM; IC50 (IMP-1; [18]): 45.9 nM; IC50 (VIM-1; [19]): 5.02 nM; Escherichia coli MITC95 [1, 20]: 3.125 µM; Klebsiella pneumoniae MITC95 [2, 21]: 3.125 µM; Serratia marcescens MITC95 [3, 22]: 6.25 µM
NS(=O)(=O)c1c(CCC(F)(F)F)ccc(-c2ccc(C3CCNCC3)cc2)c1-c1nn[nH]n1 [Example 473, 4′-(piperidin-4-yl)-2-(2H-tetrazol-5-yl)-4-(3,3,3-trifluoropropyl)-[1,1′-biphenyl]-3-sulfonamide] | 4.47 | 7.3 | 4.688 | 4.688 | 0.5859 | – | – | – | – | – | – | IC50 (VIM-1; [6]): 1.42 nM
